# Experimental data published in ChEMBL document CHEMBL6096719, “Kidney Targeting Smart Antibiotic Discovery: Multimechanism Pleuromutilins for Pyelonephritis Therapy” (J Med Chem, 2025).
# Legend:
# Enterococcus = assay: Antibacterial activity against vancomycin-resistant Enterococcus 80 assessed as inhibition of bacterial growth incubated for 24 hrs by broth microdilution method; format: functional
# Pseudomonas aeruginosa = assay: Antibacterial activity against multidrug-resistant Pseudomonas aeruginosa 126 assessed as inhibition of bacterial growth incubated for 24 hrs by broth microdilution method; format: functional
# Salmonella enterica = assay: Antibacterial activity against Salmonella enterica ATCC 14028 assessed as inhibition of bacterial growth incubated for 24 hrs by broth microdilution method; format: functional
# Staphylococcus aureus [1] = assay: Antibacterial activity against methicillin-resistant Staphylococcus aureus 596 assessed as inhibition of bacterial growth incubated for 24 hrs by broth microdilution method; format: functional
# [2] = Cytotoxicity against human HEK293 cells assessed as reduction in cell viability incubated for 24 hrs by CCK8 assay; format: toxicity, cell-based
# Staphylococcus aureus [3] = assay: Antibacterial activity against methicillin-resistant Staphylococcus aureus ATCC 43300 assessed as inhibition of bacterial growth incubated for 24 hrs by broth microdilution method; format: functional
# Staphylococcus aureus [4] = assay: Antibacterial activity against methicillin-resistant Staphylococcus aureus 171 assessed as inhibition of bacterial growth incubated for 24 hrs by broth microdilution method; format: functional
# Staphylococcus aureus [5] = assay: Antibacterial activity against methicillin-resistant Staphylococcus aureus 575 assessed as inhibition of bacterial growth incubated for 24 hrs by broth microdilution method; format: functional
# Acinetobacter baumannii [6] = assay: Antibacterial activity against Acinetobacter baumannii ATCC 19606 assessed as inhibition of bacterial growth incubated for 24 hrs by broth microdilution method; format: functional
# Staphylococcus aureus [7] = assay: Antibacterial activity against methicillin-resistant Staphylococcus aureus ATCC 33591 assessed as inhibition of bacterial growth incubated for 24 hrs by broth microdilution method; format: functional
# Escherichia coli [8] = assay: Antibacterial activity against Escherichia coli CMCC 44103 assessed as inhibition of bacterial growth incubated for 24 hrs by broth microdilution method; format: functional
# [9] = test system: Staphylococcus epidermidis; assay: Antibacterial activity against methicillin-resistant Staphylococcus epidermidis ATCC 51625 assessed as inhibition of bacterial growth incubated for 24 hrs by broth microdilution method; format: functional
# Klebsiella pneumoniae = assay: Antibacterial activity against multidrug-resistant Klebsiella pneumoniae 893 assessed as inhibition of bacterial growth incubated for 24 hrs by broth microdilution method; format: functional
# Staphylococcus aureus [10] = assay: Antibacterial activity against methicillin-resistant Staphylococcus aureus 222 assessed as inhibition of bacterial growth incubated for 24 hrs by broth microdilution method; format: functional
# Staphylococcus aureus [11] = assay: Antibacterial activity against methicillin-resistant Staphylococcus aureus 206 assessed as inhibition of bacterial growth incubated for 24 hrs by broth microdilution method; format: functional
# [12] = Cytotoxicity against human A549 cells assessed as reduction in cell viability incubated for 24 hrs by CCK8 assay; format: toxicity, cell-based
# Staphylococcus aureus [13] = assay: Antibacterial activity against Staphylococcus aureus ATCC 29213 assessed as inhibition of bacterial growth incubated for 24 hrs by broth microdilution method; format: functional
# [14] = Aqueous solubility of the compound incubated for 12 hrs by UV-Vis spectrophotometry; format: physicochemical; conditions: buffer
# Acinetobacter baumannii [15] = assay: Antibacterial activity against carbapenem-resistant Acinetobacter baumannii 882 assessed as inhibition of bacterial growth incubated for 24 hrs by broth microdilution method; format: functional
# Escherichia coli [16] = assay: Antibacterial activity against Escherichia coli ATCC 25922 assessed as inhibition of bacterial growth incubated for 24 hrs by broth microdilution method; format: functional
# [17] = Cytotoxicity against human HepG2 cells assessed as reduction in cell viability incubated for 24 hrs by CCK8 assay; format: toxicity, cell-based
# [18] = Toxicity against methicillin-resistant Staphylococcus aureus ATCC33591 infected systemic intraperitoneal infection Kunming mouse model assessed as animal's mortality at 5 mg/kg, ip treated at 1 hr post-infection and measured after 7 days; format: organism-based; conditions: in vivo, 168 h, time 7 day
# Staphylococcus aureus [19] = assay: (§1) Antibacterial activity against methicillin-resistant Staphylococcus aureus ATCC33591 infected in systemic intraperitoneal infection Kunming mouse model assessed as decrease in inflammation, neutrophil infiltration, alveolar structure destruction, leukocyte infiltration, interstitial thickening in lungs at 5 mg/kg, ip treated at 1 hr post-infection and measured after 7 days by Hematoxylin-Eosin staining based analysis; format: functional, organism-based; conditions: time 7.0 day
# Staphylococcus aureus [20] = assay: as §1, with “infiltration and disordered spleen” for “infiltration, alveolar”, “structure” for “structure destruction, leukocyte infiltration, interstitial thickening in lungs”; format: functional, organism-based; conditions: time 7.0 day
# Staphylococcus aureus [21] = assay: as §1, with “inflammation and” for “inflammation,”, “infiltration” for “infiltration, alveolar structure destruction, leukocyte infiltration, interstitial thickening”, “liver” for “lungs”; format: functional, organism-based; conditions: time 7.0 day
# Staphylococcus aureus [22] = assay: as §1, with “inflammation and” for “inflammation,”, “infiltration” for “infiltration, alveolar structure destruction, leukocyte infiltration, interstitial thickening”, “kidney” for “lungs”; format: functional, organism-based; conditions: time 7.0 day
# [23] = target: T1, Solute carrier family 22 member 2 (Homo sapiens, UniProt O15244); assay: Inhibition of human OCT2 transfected in HEK293 cells assessed as decrease in intracellular ASP accumulation at 100 uM incubated for 10 mins followed by incubation with ASP for 5 mins by fluorescence based analysis; format: cell-based; conditions: hek293, 0.25 h, time 15 min
# T1 sequence (O15244 whole entry): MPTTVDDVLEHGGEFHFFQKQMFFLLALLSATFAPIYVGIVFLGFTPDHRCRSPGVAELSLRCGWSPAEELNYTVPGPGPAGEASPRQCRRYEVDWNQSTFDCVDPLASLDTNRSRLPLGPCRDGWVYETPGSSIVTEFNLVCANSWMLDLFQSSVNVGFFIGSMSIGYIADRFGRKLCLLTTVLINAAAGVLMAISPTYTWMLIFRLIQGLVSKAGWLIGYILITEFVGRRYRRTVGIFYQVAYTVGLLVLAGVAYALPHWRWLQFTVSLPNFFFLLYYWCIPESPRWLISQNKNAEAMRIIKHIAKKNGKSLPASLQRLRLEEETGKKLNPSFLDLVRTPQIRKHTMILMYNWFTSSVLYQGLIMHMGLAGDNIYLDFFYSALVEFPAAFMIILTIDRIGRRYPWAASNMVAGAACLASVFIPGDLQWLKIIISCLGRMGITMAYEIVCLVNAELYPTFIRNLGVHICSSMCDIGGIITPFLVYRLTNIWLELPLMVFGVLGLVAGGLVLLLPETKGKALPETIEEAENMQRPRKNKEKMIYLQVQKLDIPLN
# [24] = target: Solute carrier family 22 member 1 (Homo sapiens, UniProt O15245); assay: Inhibition of human OCT1 transfected in HEK293 cells assessed as decrease in intracellular ASP accumulation at 200 uM incubated for 10 mins followed by incubation with ASP for 5 mins by fluorescence based analysis; format: cell-based; conditions: hek293, 0.25 h, time 15 min
# Sequence of Solute carrier family 22 member 1 (O15245 whole entry): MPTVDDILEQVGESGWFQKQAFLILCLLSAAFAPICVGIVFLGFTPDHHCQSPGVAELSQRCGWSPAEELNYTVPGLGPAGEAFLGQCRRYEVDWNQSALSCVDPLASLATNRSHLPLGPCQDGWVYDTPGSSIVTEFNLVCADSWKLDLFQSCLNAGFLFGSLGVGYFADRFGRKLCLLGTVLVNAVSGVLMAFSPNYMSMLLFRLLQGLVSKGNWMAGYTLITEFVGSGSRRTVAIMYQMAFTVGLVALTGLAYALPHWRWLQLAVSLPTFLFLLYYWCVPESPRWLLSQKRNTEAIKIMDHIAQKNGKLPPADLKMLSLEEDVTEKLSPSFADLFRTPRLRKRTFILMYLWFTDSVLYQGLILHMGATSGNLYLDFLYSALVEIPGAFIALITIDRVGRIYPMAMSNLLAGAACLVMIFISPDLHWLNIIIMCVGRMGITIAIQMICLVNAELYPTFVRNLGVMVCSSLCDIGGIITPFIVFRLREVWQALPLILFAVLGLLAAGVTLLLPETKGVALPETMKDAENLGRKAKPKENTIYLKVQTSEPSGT
SMILES,MIC (Enterococcus) [µg/mL],MIC (Pseudomonas aeruginosa) [µg/mL],MIC (Salmonella enterica) [µg/mL],MIC (Staphylococcus aureus [1]) [µg/mL],CC50 at 24 h [2] [µM],MIC (Staphylococcus aureus [3]) [µg/mL],MIC (Staphylococcus aureus [4]) [µg/mL],MIC (Staphylococcus aureus [5]) [µg/mL],MIC (Acinetobacter baumannii [6]) [µg/mL],MIC (Staphylococcus aureus [7]) [µg/mL],MIC (Escherichia coli [8]) [µg/mL],MIC [9] [µg/mL],MIC (Klebsiella pneumoniae) [µg/mL],MIC (Staphylococcus aureus [10]) [µg/mL],MIC (Staphylococcus aureus [11]) [µg/mL],CC50 at 24 h [12] [µM],MIC (Staphylococcus aureus [13]) [µg/mL],solubility at 12 h [14] [µg/mL],MIC (Acinetobacter baumannii [15]) [µg/mL],CC50 at 24 h [17] [µM],other results
C=C[C@]1(C)C[C@@H](OC(=O)CSc2nc3cc[n+](Cc4ccc(C#N)cc4)cc3[nH]2)[C@]2(C)[C@H](C)CC[C@]3(CCC(=O)[C@H]32)[C@@H](C)[C@@H]1O.[Br-],2,32,< 2,8,> 100,< 2,16,32,< 2,< 2,< 2,< 2,16,16,4,> 100,< 2,481,64,96.3,MIC (Escherichia coli [16]): < 2 µg/mL
C=C[C@]1(C)C[C@@H](OC(=O)CSC(C)(C)CNC(=O)[C@H](N)C(C)C)[C@]2(C)[C@H](C)CC[C@]3(CCC(=O)[C@H]32)[C@@H](C)[C@@H]1O [VALNEMULIN],64,64,–,> 128,65.4,–,> 128,128,–,–,–,–,32,64,64,53.7,–,218,64,77.3,Activity [18]: Toxic; Activity (Staphylococcus aureus [19]): Active; Slight Without Complete Recovery Observed; Activity (Staphylococcus aureus [20]): Active; Slight Without Complete Recovery Observed; Activity (Staphylococcus aureus [21]): Active; Slight Without Complete Recovery Observed; Activity (Staphylococcus aureus [22]): Active; Slight Without Complete Recovery Observed
CN(C)CCC=C1c2ccccc2CCc2ccccc21 [AMITRIPTYLINE],–,–,–,–,–,–,–,–,–,–,–,–,–,–,–,–,–,–,–,–,inhibition (INH) [23]: Active; inhibition (INH) [24]: Active
C=C[C@]1(C)C[C@@H](OC(=O)CSc2nc3cc[n+](Cc4ccc(C#N)cc4)cc3s2)[C@]2(C)[C@H](C)CC[C@]3(CCC(=O)[C@H]32)[C@@H](C)[C@@H]1O.[Br-],16,32,< 2,8,18.2,< 2,16,32,< 2,< 2,< 2,< 2,16,16,64,> 100,< 2,451,64,78.5,MIC (Escherichia coli [16]): < 2 µg/mL
